The record followed here is PubChem BioAssay (NCI).

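These data come from cells grown in 96-well plates and exposed to compound for 48 hours at five concentrations. GI50: concentration for 50% inhibition of growth. At the TGI there is no net growth.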 Where only a bound is given, the exact number is not on record here.

Among the test systems are NCI-H226 lung; NCI-H23 lung; SF-295 CNS; PC-3 prostate; M14 melanoma; RPMI-8226 leukemia; SF-539 CNS; SK-OV-3 ovarian; 786-0 renal; UO-31 renal.
Test in all cases: NCI tumour cell line growth inhibition, 48 h

Regarding `COc1cc2c(c(OC)c1OC)-c1c(cc3c(c1OC)OCO3)CC(C)C(C)(O)C2OC(=O)c1ccccc1` (stereo unspecified), the TGI in the experiment on NCI-H226 lung was above 100 µM; in the experiment on NCI-H23 lung, above 100 µM; in the experiment on SF-295 CNS it was above 100 µM; with PC-3 prostate it was above 100 µM; with M14 melanoma, above 100 µM; in the experiment on RPMI-8226 leukemia, 79.3 µM. In addition, the TGI with SF-539 CNS is above 100 µM; in the experiment with SK-OV-3 ovarian, above 100 µM; in the experiment on 786-0 renal, above 100 µM; with UO-31 renal, 87.3 µM.

For the molecule `CCOC1OC(=O)[C@H]2[C@@H]1[C@@H]1CC[C@H]2O1` (stereo partly specified), the GI50 with NCI-H226 lung was above 100 µM; with NCI-H23 lung, above 100 µM; in the experiment on SF-295 CNS it was above 100 µM; in the experiment on PC-3 prostate it was above 100 µM; with M14 melanoma, above 100 µM; with RPMI-8226 leukemia, above 29.3 µM. For the same molecule, the GI50 with SF-539 CNS, in the experiment with SK-OV-3 ovarian, with 786-0 renal and with UO-31 renal was above 100 µM in each case. The TGI in the experiment on NCI-H226 lung, in the experiment on NCI-H23 lung, in the experiment on SF-295 CNS, with PC-3 prostate, in the experiment with M14 melanoma and in the experiment on RPMI-8226 leukemia was above 100 µM each time. In addition, the TGI in the experiment with SF-539 CNS, in the experiment on SK-OV-3 ovarian, in the experiment on 786-0 renal and in the experiment with UO-31 renal was above 100 µM throughout.

In the case of `Cc1oc2c(c1C(=O)N1CC[C@@H](N)C1)C(=O)c1c(c(O)c3ccccc3c1O)C2=O`, the GI50 is 1.52 µM in the experiment on NCI-H226 lung; 2.61 µM with NCI-H23 lung; 0.272 µM with SF-295 CNS; 1.98 µM in the experiment with PC-3 prostate; 1.41 µM in the experiment with M14 melanoma; 2.51 µM with RPMI-8226 leukemia. Moreover, the GI50 with SF-539 CNS was 2.55 µM; with SK-OV-3 ovarian, 1.1 µM; in the experiment on 786-0 renal it was 3.93 µM; with UO-31 renal, 0.421 µM. The TGI turned out to be 22.6 µM in the experiment with NCI-H226 lung; 12.2 µM with NCI-H23 lung; 1.79 µM in the experiment with SF-295 CNS; 10.9 µM in the experiment with PC-3 prostate; 2.96 µM in the experiment with M14 melanoma; 12.6 µM in the experiment with RPMI-8226 leukemia. For the same molecule, the TGI in the experiment with SF-539 CNS worked out at 11.7 µM; with SK-OV-3 ovarian, 7.86 µM; with 786-0 renal, 17.3 µM; in the experiment with UO-31 renal, 2.44 µM.

Turning to `COc1cc(C2CC(=O)Nc3c2cc(Br)c2ccccc32)cc(Br)c1OC` (stereo unspecified), the GI50 is 2.34 µM with NCI-H226 lung; 4.37 µM in the experiment with NCI-H23 lung; 1.47 µM in the experiment on SF-295 CNS; 2.62 µM in the experiment on PC-3 prostate; 1.08 µM in the experiment on M14 melanoma; 3.71 µM with RPMI-8226 leukemia. Further, the GI50 in the experiment on SF-539 CNS was 3.27 µM; with SK-OV-3 ovarian, 1.76 µM; in the experiment on 786-0 renal, 1.76 µM. Also, the TGI in the experiment on NCI-H226 lung is 5.57 µM; in the experiment on NCI-H23 lung, above 100 µM; in the experiment on SF-295 CNS, 5.4 µM; in the experiment with PC-3 prostate, above 100 µM; in the experiment on M14 melanoma it was above 100 µM; in the experiment on RPMI-8226 leukemia, above 100 µM. Moreover, the TGI in the experiment with SF-539 CNS is above 58.6 µM; in the experiment with SK-OV-3 ovarian it was 3.35 µM; in the experiment on 786-0 renal it was 3.79 µM.

Consider `Cn1nnc2c(C(N)=O)ncn2c1=O`, for which the TGI with NCI-H226 lung, in the experiment with NCI-H23 lung, with SF-295 CNS, in the experiment with PC-3 prostate, in the experiment on M14 melanoma and in the experiment on RPMI-8226 leukemia was above 100 µM each time. The TGI with SF-539 CNS was above 100 µM; in the experiment on SK-OV-3 ovarian, 100 µM; with 786-0 renal, above 100 µM; in the experiment on UO-31 renal it was above 100 µM.

For `Oc1c(Cl)cc(Cl)c2cccnc12`, the GI50 was 3.15 µM in the experiment on NCI-H226 lung; 4.2 µM with NCI-H23 lung; 1.96 µM with SF-295 CNS; 3.94 µM with PC-3 prostate; 1.96 µM in the experiment on M14 melanoma; 4.34 µM in the experiment with RPMI-8226 leukemia. In addition, the GI50 with SF-539 CNS was 4.08 µM; in the experiment on SK-OV-3 ovarian, 3.71 µM; in the experiment on 786-0 renal it was 3.29 µM; in the experiment on UO-31 renal, 2.5 µM. Besides, the TGI with NCI-H226 lung is 14.7 µM; in the experiment with NCI-H23 lung, 42.5 µM; in the experiment on SF-295 CNS, above 100 µM; in the experiment with PC-3 prostate, above 100 µM; in the experiment on M14 melanoma, 5.26 µM; in the experiment on RPMI-8226 leukemia, above 100 µM. Further, the TGI in the experiment with SF-539 CNS came to 71.1 µM; in the experiment on SK-OV-3 ovarian, 16.2 µM; in the experiment with 786-0 renal it was 11.8 µM; in the experiment with UO-31 renal it was 9.31 µM.

As for `CN(c1ccc(C#N)c(Cl)c1)C1CCC(NC(=O)c2ccc(N3CCN(C4CN(c5ccc6c(c5)C(=O)N(C5CCC(=O)NC5=O)C6=O)C4)CC3)cc2)CC1` (stereo unspecified), the GI50 in the experiment on NCI-H226 lung was above 100 µM; in the experiment with NCI-H23 lung, above 100 µM; in the experiment on SF-295 CNS it was above 100 µM; with PC-3 prostate, above 100 µM; in the experiment with M14 melanoma, 21.7 µM; with RPMI-8226 leukemia it was above 100 µM. Moreover, the GI50 in the experiment with SF-539 CNS, in the experiment with SK-OV-3 ovarian, in the experiment on 786-0 renal and in the experiment on UO-31 renal was above 100 µM throughout. For the same molecule, the TGI was above 100 µM in the experiment with NCI-H226 lung; above 100 µM in the experiment on NCI-H23 lung; above 100 µM with SF-295 CNS; above 100 µM with PC-3 prostate; 64.3 µM in the experiment with M14 melanoma; above 100 µM in the experiment on RPMI-8226 leukemia. Moreover, the TGI in the experiment on SF-539 CNS, in the experiment on SK-OV-3 ovarian, with 786-0 renal and with UO-31 renal was above 100 µM in each case.

Regarding `O=C1/C(=C/c2cccc(Br)c2)COc2ccc(O)c(O)c21`, the GI50 in the experiment on NCI-H226 lung was 2.4 µM; with NCI-H23 lung, 1.74 µM; in the experiment with SF-295 CNS, 2.75 µM; in the experiment on PC-3 prostate, 0.79 µM; in the experiment with M14 melanoma, 1.6 µM; with RPMI-8226 leukemia it was 0.248 µM. For the same molecule, the GI50 was 1.58 µM with SF-539 CNS, 3.12 µM with SK-OV-3 ovarian, 1.46 µM with 786-0 renal and 0.958 µM with UO-31 renal. Also, the TGI in the experiment with NCI-H226 lung was found to be 6.81 µM; in the experiment on NCI-H23 lung it was 4.25 µM; with SF-295 CNS, 7.39 µM; in the experiment on PC-3 prostate, 3.45 µM; in the experiment with M14 melanoma, 3.47 µM; in the experiment on RPMI-8226 leukemia, 0.649 µM. The TGI amounted to 3.45 µM in the experiment with SF-539 CNS, 10.6 µM with SK-OV-3 ovarian, 4.1 µM in the experiment with 786-0 renal and 2.14 µM in the experiment on UO-31 renal.

For the molecule `Nc1n[nH]c(N)c1N=Nc1ccc(O)cc1`, the GI50 in the experiment on NCI-H226 lung was 17.7 µM; in the experiment with NCI-H23 lung, 19.1 µM; in the experiment with SF-295 CNS, 23.3 µM; with PC-3 prostate, 20.3 µM; in the experiment with M14 melanoma it was 15.9 µM; in the experiment with RPMI-8226 leukemia, 14.4 µM. Moreover, the GI50 in the experiment with SF-539 CNS is 13.1 µM; in the experiment on SK-OV-3 ovarian, 49.2 µM; in the experiment on 786-0 renal, 26.3 µM; in the experiment with UO-31 renal, 13.7 µM. Further, the TGI in the experiment with NCI-H226 lung was 67.5 µM; with NCI-H23 lung, 62.3 µM; in the experiment on SF-295 CNS, 82.5 µM; in the experiment with PC-3 prostate it was above 100 µM; in the experiment on M14 melanoma, above 100 µM; in the experiment on RPMI-8226 leukemia, 54.3 µM. For the same molecule, the TGI was 36.4 µM with SF-539 CNS, above 100 µM in the experiment with SK-OV-3 ovarian, above 100 µM with 786-0 renal and 66.3 µM in the experiment with UO-31 renal.

With `O=c1cccc(C#CC#CCCCO)o1`, the GI50 is 13.8 µM with NCI-H226 lung; 4.17 µM in the experiment with NCI-H23 lung; 13.5 µM with SF-295 CNS; 3.13 µM in the experiment on PC-3 prostate; 4.76 µM with M14 melanoma; 4.6 µM in the experiment with SF-539 CNS. For the same molecule, the results for the GI50 in the experiment on SK-OV-3 ovarian, in the experiment with 786-0 renal and in the experiment with UO-31 renal were 18.5 µM, 5.27 µM and 2.17 µM, respectively. In addition, the TGI with NCI-H226 lung is 32.5 µM; in the experiment on NCI-H23 lung, 11.7 µM; with SF-295 CNS it was 28.9 µM; in the experiment on PC-3 prostate, above 22.8 µM; with M14 melanoma, 21.5 µM; with RPMI-8226 leukemia, above 26.7 µM. The TGI with SF-539 CNS was above 43.5 µM; with SK-OV-3 ovarian, 45.4 µM; in the experiment with 786-0 renal, 14 µM; with UO-31 renal it was above 100 µM.

On to `CCN1C(=O)N(CC)C2C1NN=c1s/c(=C\c3ccc[nH]3)c(=O)n12` (stereo unspecified), for which the TGI in the experiment on NCI-H226 lung was above 100 µM; in the experiment on NCI-H23 lung, above 100 µM; with SF-295 CNS, above 40.3 µM; in the experiment with PC-3 prostate, above 100 µM; in the experiment on M14 melanoma, above 100 µM; in the experiment on RPMI-8226 leukemia, above 100 µM. In addition, the TGI in the experiment on SF-539 CNS was 1.05 µM; with SK-OV-3 ovarian, above 100 µM; with 786-0 renal it was above 100 µM; in the experiment with UO-31 renal it was above 100 µM. For the same molecule, the GI50 in the experiment with NCI-H23 lung is 1.34 µM; in the experiment with SF-295 CNS, 0.334 µM; in the experiment with PC-3 prostate, 0.372 µM; in the experiment on M14 melanoma, 0.385 µM; with RPMI-8226 leukemia it was 0.481 µM; in the experiment with SF-539 CNS, 0.246 µM. For the same molecule, the GI50 was 0.301 µM with SK-OV-3 ovarian, 0.614 µM in the experiment on 786-0 renal and 0.719 µM in the experiment on UO-31 renal.

In the case of `Nc1ncccc1-c1nc2ccc(-c3ccccc3)nc2n1-c1ccc(C2(N)CCC2)cc1`, the GI50 in the experiment with NCI-H226 lung was 5.02 µM; in the experiment with NCI-H23 lung, 5.19 µM; in the experiment with SF-295 CNS, 0.256 µM; with PC-3 prostate, 0.0533 µM; in the experiment on M14 melanoma, 1.4 µM; in the experiment on RPMI-8226 leukemia, 1.74 µM. Moreover, the GI50 in the experiment on SF-539 CNS is 0.978 µM; with SK-OV-3 ovarian, 0.166 µM; in the experiment with 786-0 renal it was 0.212 µM; with UO-31 renal, 0.278 µM. The TGI with NCI-H226 lung stood at 23.7 µM; in the experiment on NCI-H23 lung, 21.5 µM; with SF-295 CNS, 2.3 µM; with PC-3 prostate, 3.39 µM; in the experiment on M14 melanoma, 2.96 µM; in the experiment on RPMI-8226 leukemia, 4.78 µM. Besides, the TGI in the experiment on SF-539 CNS was found to be 2.52 µM; with SK-OV-3 ovarian, 3.01 µM; with 786-0 renal it was 1.6 µM; with UO-31 renal, 2.03 µM.
